Where two headings read alike, the source gives them in different places.
Tests used:
[1] = system: acne vulgaris; experiment: Preclinical trial of washing solution, anti-acne activity; type: in vivo
Excerpt: The concentration of HOCl in the washing solution may be higher than this value depending on where the washing solution is to be applied, e.g. when treating a patient's back for trunk acne, the concentration of HOCl in the washing solution may be as high as 60 ppm for maximum effect in the short term because the thickness of skin on this section of a body is around 3 mm (as compared to a skin thickness of 0.1 mm at the chin section of the face).
Treatment is divided into two stages, treatment period and maintenance period. User should conduct the treatment daily during treatment period until no acne break out; then can switch to maintenance period.
• 1. Wash the face regularly with soap completely removing oil and grime from the surface of the skin. Concentrate on areas of the skin prone to suffering from acne, such as forehead, chin, jawline, around the lips and nose. • 2. Prepare the washing solution as indicated in Examples 1A-1I. • 3. Submerge your face fully into the washing solution, in order to extend time for skin contacting with the solution, moving the head as much as practical while submerged. […]

[2] = cited from earlier work
[3] = system: cells; settings: equimolar basis, compared with HOCl; cited from earlier work
[4] = cited from earlier work; remark: listed apart in the source
[5] = system: bacteria; settings: hot tubs, spas and swimming pools; cited from earlier work

OBr [HOBr, hypobromous acid]
anti-acne activity compared with hypochlorous acid [1]: slightly less effective than hypochlorous acid | % of bromine as HOBr ([2]; water pH 6.0): 100% | % of bromine as HOBr ([2]; water pH 6.5): 99.4% | % of bromine as HOBr ([2]; water pH 7.0): 98% | % of bromine as HOBr ([2]; water pH 7.5): 94.0% | % of bromine as HOBr ([2]; water pH 8.0): 83.0% | % of bromine as HOBr ([2]; water pH 8.5): 57.0% | efficiency as a lytic agent, factor relative to HOCl [3]: 10

OCl [HOCl, hypochlorous acid]
FAC existing as active HOCl ([4]; pH above 7.5): < 50% | % of Chlorine as HOCl ([4]; water pH 6.5): 90% | % of Chlorine as HOCl ([4]; water pH 7.0): 73% | % of Chlorine as HOCl ([4]; water pH 7.2): 66% | share of FAC in the active HOCl form ([4]; water pH 7.5): ~50% | % of Chlorine as HOCl ([4]; water pH 7.6): 45% | % of Chlorine as HOCl ([4]; water pH 8.0): 21% | % of Chlorine as HOCl ([4]; water pH 8.5): 10% | time needed to completely destroy a given concentration of bacteria [5]: 30 s

OBr [OBr^−, hypobromite]
% bromine as OBr− ([2]; water pH 6.0): 0.0% | % bromine as OBr− ([2]; water pH 6.5): 0.6% | % bromine as OBr− ([2]; water pH 7.0): 2% | % bromine as OBr− ([2]; water pH 7.5): 6.0% | % bromine as OBr− ([2]; water pH 8.0): 17.0% | % bromine as OBr− ([2]; water pH 8.5): 43.0%

Hypochlorite ion [OCl^−]
% chlorine as OCl− ([4]; water pH 6.5): 10% | % chlorine as OCl− ([4]; water pH 7.0): 27% | % chlorine as OCl− ([4]; water pH 7.2): 34% | % chlorine as OCl− ([4]; water pH 7.6): 55% | % chlorine as OCl− ([4]; water pH 8.0): 79% | % chlorine as OCl− ([4]; water pH 8.5): 90%

Source: patent publication US20080014289A1, “Vehicle and method for treating and preventing acne vulgaris and exfoliating the skin hypohalous acids” (priority 2006, published 2008)
